Active and inactive are the calls of the source.
Key:
[1] = target: Peroxisome proliferator-activated receptor gamma/Nuclear receptor coactivator 1 (Homo sapiens, UniProt P37231); assay: TR-FRET dose response biochemical High Throughput Screening assay for agonists of the steroid receptor coactivator 1 (SRC-1) recruitment by the peroxisome proliferator-activated receptor gamma (PPAR gamma): non-selective agonists. [Related pubchem assays (depositor defined):AID1300, AID1808, AID504735, AID631]; type: protein assay
[2] = target: Peroxisome proliferator-activated receptor gamma/Nuclear receptor coactivator 3 (Homo sapiens, UniProt P37231); assay: TR-FRET dose response biochemical High Throughput Screening assay for agonists of the steroid receptor coactivator 3 (SRC-3) recruitment by the peroxisome proliferator-activated receptor gamma (PPAR gamma): non-selective agonists. [Related pubchem assays: 1301 (Confirmation screen.), 1048 (Primary screen.)]; type: functional
[3] = target: Peroxisome proliferator-activated receptor gamma/Nuclear receptor coactivator 2 (Homo sapiens, UniProt P37231); assay: TR-FRET dose response biochemical High Throughput Screening assay for agonists of the steroid receptor coactivator 2 (SRC-2) recruitment by the peroxisome proliferator-activated receptor gamma (PPAR gamma): non-selective agonists. [Related pubchem assays: 1297, 1032 ]; type: functional
[4] = target: X-box-binding protein 1 (Homo sapiens, UniProt P17861); type: functional, Cricetulus griseus;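 also: confirmatory dose-response counter-screen serving a CHOP assay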
[5] = target: DNA damage-inducible transcript 3 protein (Mus musculus, UniProt P35639); type: functional, Cricetulus griseus
[6] = C. albicans growth with fluconazole, confirmation, fluorescence, retest (AID 2467); type: functional, cell-based
[7] = NIH-3T3 fibroblast cytotoxicity, dose response, cytotoxicity control, cell-based, fluorescence, Alamar Blue, secondary assay (AID 2327); type: functional;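 also: NIH-3T3 mouse fibroblasts cultured with fluconazole at 8 µg/mL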
[8] = target: G-protein coupled receptor 55 (Homo sapiens, UniProt Q9Y2T6); assay: GPR55 antagonists blocking LPI-driven arrestin recruitment, primary screen, imaging, U2OS, beta-arrestin-GFP, LPI agonist (AID 2013); type: functional;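 also: antagonist potency measured as reduced agonist-driven arrestin aggregation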
[9] = Counterscreen for AddAB inhibitors: absorbance-based bacterial cell-based high throughput dose response assay for inhibitors of bacterial viability. [Related pubchem assays (depositor defined):AID435030, AID449728, AID449731, AID488942, AID488955, AID488956]; type: functional
[10] = target: Exodeoxyribonuclease V (Escherichia coli (strain K12), UniProt P04993+P07648+P08394); assay: E. coli RecBCD inhibitors, dose response, counter-screen for AddAB inhibitor project, absorbance, V66 E. coli, mutant T4 phage (AID 492957); type: functional, cell-based, Escherichia coli str. K-12 substr. MG1655
[11] = test system: HEK293; assay: NOD2 signaling inhibitors in MDP-stimulated cells, cell-based, uHTS, luminescence (AID 2001); type: functional; details: Homo sapiens
[12] = test system: HEK293; assay: cells; type: functional, cell-based; details: Homo sapiens
[13] = test system: HEK293; assay: cells; type: functional, cell-based; details: Homo sapiens; remark: listed apart in the source
[14] = target: Nucleotide-binding oligomerization domain-containing protein 2 (Homo sapiens, UniProt Q9HC29); assay: NOD2 signaling inhibitors, cell-based, luminescence, uHTS, HEK293 (AID 1566); type: functional
[15] = test system: HEK293; assay: NOD1 signaling inhibitors, primary screen, cell-based, luminescence, uHTS (AID 1578); type: functional; details: Homo sapiens
[16] = test system: HEK293; assay: cells; type: functional, cell-based; details: Homo sapiens; remark: listed apart in the source
[17] = target: T1, Coagulation factor XII (Homo sapiens, UniProt P00748); assay: FXIIa inhibitor potency, concentration-response, biochemical (AID 716); type: functional
T1 sequence (P00748 whole entry): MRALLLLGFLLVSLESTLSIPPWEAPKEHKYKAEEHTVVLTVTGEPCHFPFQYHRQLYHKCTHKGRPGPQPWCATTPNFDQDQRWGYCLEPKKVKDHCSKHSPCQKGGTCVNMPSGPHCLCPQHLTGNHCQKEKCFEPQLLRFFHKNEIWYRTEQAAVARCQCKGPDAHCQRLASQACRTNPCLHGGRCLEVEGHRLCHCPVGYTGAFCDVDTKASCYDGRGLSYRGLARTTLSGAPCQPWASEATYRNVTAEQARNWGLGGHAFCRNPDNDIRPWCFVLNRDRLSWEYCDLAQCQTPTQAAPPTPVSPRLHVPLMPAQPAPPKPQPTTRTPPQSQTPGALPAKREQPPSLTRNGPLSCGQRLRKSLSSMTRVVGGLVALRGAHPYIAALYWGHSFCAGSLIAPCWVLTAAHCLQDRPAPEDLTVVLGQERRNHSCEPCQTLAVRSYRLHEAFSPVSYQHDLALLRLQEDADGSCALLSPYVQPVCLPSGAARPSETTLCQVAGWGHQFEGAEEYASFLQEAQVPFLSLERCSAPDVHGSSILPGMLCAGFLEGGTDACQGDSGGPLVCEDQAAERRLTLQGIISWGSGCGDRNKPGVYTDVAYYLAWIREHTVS

[18] = target: T2, Voltage-gated N-type calcium channel alpha-1B subunit/Amyloid beta A4 precursor protein-binding family A member 1 (Homo sapiens, UniProt Q00975+Q02410); type: protein assay
[19] = target: T2, Voltage-gated N-type calcium channel alpha-1B subunit/Amyloid beta A4 precursor protein-binding family A member 1; type: protein assay; remark: listed apart in the source
[20] = target: Troponin, cardiac muscle (Homo sapiens, UniProt P19429+P45379+P63316); assay: Fluorescence-based biochemical high throughput dose response assay for activators of the calcium sensitivity of cardiac Regulated Thin Filaments (RTF). [Related pubchem assays (depositor defined):AID493008, AID493018, AID504382, AID504383]; type: protein-complex assay
[21] = target: T3, Rac GTPase-activating protein 1 (Homo sapiens, UniProt Q9H0H5); assay: MgcRacGAP GTPase-activating activity inhibitors, confirmation, biochemical, ADP Hunter fluorescence, primary and confirmatory (AID 624330); type: functional
T3 sequence (Q9H0H5 whole entry): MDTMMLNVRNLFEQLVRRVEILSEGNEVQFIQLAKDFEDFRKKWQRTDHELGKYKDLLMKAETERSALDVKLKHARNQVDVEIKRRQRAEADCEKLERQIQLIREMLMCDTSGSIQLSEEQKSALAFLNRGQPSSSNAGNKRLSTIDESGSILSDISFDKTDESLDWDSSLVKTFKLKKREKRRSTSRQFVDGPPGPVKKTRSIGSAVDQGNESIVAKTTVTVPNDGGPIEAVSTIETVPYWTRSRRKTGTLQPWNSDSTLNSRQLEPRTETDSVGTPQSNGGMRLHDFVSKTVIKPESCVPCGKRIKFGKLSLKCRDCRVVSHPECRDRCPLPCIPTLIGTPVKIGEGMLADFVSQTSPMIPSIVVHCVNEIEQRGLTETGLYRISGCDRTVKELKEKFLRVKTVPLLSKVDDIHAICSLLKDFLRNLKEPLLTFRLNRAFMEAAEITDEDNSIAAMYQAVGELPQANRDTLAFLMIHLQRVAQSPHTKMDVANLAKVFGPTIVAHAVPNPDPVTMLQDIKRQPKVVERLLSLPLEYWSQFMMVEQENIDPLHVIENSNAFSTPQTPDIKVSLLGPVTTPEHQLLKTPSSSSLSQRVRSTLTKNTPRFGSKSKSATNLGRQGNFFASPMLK

[22] = target: T4, E3 ubiquitin-protein ligase XIAP (Homo sapiens, UniProt P98170); assay: Counter Screen using XIAP-Bir3 for Chemical Antagonists of Bir1/2 domains of IAP-family anti-apoptotic proteins. [Related pubchem assays (depositor defined):AID1018, AID1449, AID1514, AID1638, AID1749, AID1750, AID488957, AID488963]
[23] = target: T4, E3 ubiquitin-protein ligase XIAP; assay: XIAP antagonists, biochemical, IAP family, fluorescence polarization (AID 1018); type: functional
[24] = target: T5, Alkaline phosphatase, tissue-nonspecific isozyme (Homo sapiens, UniProt P05186); assay: human TNAP enzyme inhibitors, SAR follow-up, biochemical, luminescent, dose response (AID 1056)
T5 sequence (P05186 whole entry): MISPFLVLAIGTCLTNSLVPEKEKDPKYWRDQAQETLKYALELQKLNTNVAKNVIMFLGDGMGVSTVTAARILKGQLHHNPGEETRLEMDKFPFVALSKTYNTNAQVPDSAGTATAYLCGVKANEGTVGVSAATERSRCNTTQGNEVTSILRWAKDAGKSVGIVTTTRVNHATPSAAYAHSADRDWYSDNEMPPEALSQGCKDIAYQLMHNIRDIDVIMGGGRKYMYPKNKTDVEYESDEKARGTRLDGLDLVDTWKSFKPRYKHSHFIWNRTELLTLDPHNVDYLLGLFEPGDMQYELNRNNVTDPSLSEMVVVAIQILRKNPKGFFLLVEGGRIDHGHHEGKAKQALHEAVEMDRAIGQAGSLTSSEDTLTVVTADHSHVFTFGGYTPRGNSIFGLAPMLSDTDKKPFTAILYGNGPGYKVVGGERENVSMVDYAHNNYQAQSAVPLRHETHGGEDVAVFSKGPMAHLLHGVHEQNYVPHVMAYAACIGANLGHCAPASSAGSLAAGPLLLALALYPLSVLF

[25] = target: Alkaline phosphatase, placental type (Homo sapiens, UniProt P05187); assay: PLAP enzyme inhibitors, confirmation, biochemical, luminescence (AID 1512); type: functional
[26] = target: Glyceraldehyde-3-phosphate dehydrogenase (Homo sapiens, UniProt P04406)
[27] = target: T6, Mannose-6-phosphate isomerase (Homo sapiens, UniProt P34949); assay: PMI enzyme inhibitors, confirmation, biochemical, fluorescence intensity (AID 1535)
T6 sequence (P34949 whole entry): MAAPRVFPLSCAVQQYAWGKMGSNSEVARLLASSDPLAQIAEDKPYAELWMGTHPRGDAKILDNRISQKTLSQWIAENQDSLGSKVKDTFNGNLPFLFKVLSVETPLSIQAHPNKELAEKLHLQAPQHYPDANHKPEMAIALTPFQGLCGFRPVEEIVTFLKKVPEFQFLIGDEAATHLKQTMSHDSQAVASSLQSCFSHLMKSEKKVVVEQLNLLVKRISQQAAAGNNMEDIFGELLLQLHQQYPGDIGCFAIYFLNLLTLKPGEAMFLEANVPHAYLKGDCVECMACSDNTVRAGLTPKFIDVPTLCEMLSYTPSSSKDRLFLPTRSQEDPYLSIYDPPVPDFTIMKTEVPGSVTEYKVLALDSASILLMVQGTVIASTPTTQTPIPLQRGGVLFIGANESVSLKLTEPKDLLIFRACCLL

[28] = target: Phosphomannomutase 2 (Homo sapiens, UniProt O15305); assay: Counter screen SAR assay for PMM2 inhibitors via a fluorescence intensity assay. [Related pubchem assays (depositor defined):AID1545, AID1574]
[29] = cytotoxicity in HEK-293T cells, dose response, cytotoxicity control for TCR NF-kB inhibitor project, luminescence, T-cell screen hits (AID 489026); type: functional, cell-based;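 also: cells exposed to compound about 14 hours before the viability readout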

Cn1c(=O)cc(SCC(=O)NCc2ccc(F)cc2)c2ccccc21
EC50 [1]: > 79.4 µM (inactive)
EC50 [2]: > 79.4 µM (not active)
EC50 [3]: > 79.4 µM (not active)

CCCc1ccc(Oc2c[nH]nc2-c2ccc(O)cc2O)cc1
Absolute IC50 (XBP1) [4]: 10 µM
Absolute IC50 (CHOP) [5]: 10 µM
EC50 [6]: > 38 µM (not active)
EC50 [7]: > 150 µM (inconclusive)

S=C(Nc1ccc(Oc2ccccc2)cc1)N(CCCN1CCOCC1)Cc1ccccn1
IC50 [8]: 2.71 µM (active)

O=C(CSc1nc2ccccc2s1)Nc1ccc(N2CCOCC2)c(Cl)c1
IC50 [9]: > 119 µM (inactive)
IC50 [10]: > 119 µM (inactive)

O=C(CCC1CCCC1)NNC(=O)c1cc2ccccc2cc1O
IC50 [9]: > 119 µM (inactive)
IC50 [10]: > 119 µM (inactive)

O=C(Nc1ccc(Cl)cc1)c1cccc(N2C(=O)C3C4CCC(C4)C3C2=O)c1 (centres undefined)
IC50 [11]: 16.7 µM (inactive)
IC50 [12]: > 20 µM (inactive)
IC50 [13]: > 20 µM (inactive)
EC50 [14]: > 20 µM (inactive)
EC50 [15]: 12 µM (active)
IC50 [16]: 15.7 µM (active)

COC(=O)COc1cccc(-n2cnnn2)c1
IC50 [17]: > 50 µM (inactive)

COc1ccc(/C=C/C(=O)NC(=S)Nc2ccc(S(=O)(=O)N=C(N)N)cc2)cc1OC
IC50 [18]: 4.65 µM (active)
IC50 [19]: > 50 µM (inactive)

CCCN1CCc2c(sc(NC(=S)NC(=O)c3ccccc3)c2C#N)C1
EC50 [20]: 3.73 µM (active)

CCc1ccc2c(COC(=O)CNS(=O)(=O)c3ccc(NC(C)=O)cc3)cc(=O)oc2c1
EC50 [20]: > 71.5 µM (inactive)

O=C(/C=C/Nc1ccc(Nc2ccccc2)cc1)c1cccs1
IC50 [21]: 230 µM (active)
IC50 [22]: > 100 µM (inactive)
IC50 [23]: > 100 µM (not active)

O=C(c1cc(-c2ccc(Cl)cc2Cl)n[nH]1)N1CCCCC1
IC50 [24]: 2.52 µM (active)
IC50 [25]: > 100 µM (inactive)
IC50 [26]: > 100 µM (not active)

Oc1ccc(/N=c2\ssnc2Cl)cc1
IC50 [27]: > 100 µM (inactive)
IC50 [28]: > 100 µM (inactive)

CCCCN1C(=O)/C(=N\Nc2ccccc2F)c2ccccc21
IC50 [24]: > 100 µM (inactive)
IC50 [25]: 78.5 µM (active)

CCCCNS(=O)(=O)c1ccc2nc(-c3cccnc3)cc(C(=O)NC3CCCC3)c2c1
Absolute IC50 (CHOP) [5]: 10 µM

COC(=O)c1ccc(COc2ccc(/C=N/Nc3nc(C)cc(O)n3)cc2)cc1
IC50 [18]: > 56.8 µM (not active)
IC50 [19]: > 50 µM (inactive)

C=CCOC(=O)C1=C(C)N=C(C)/C(=C(/O)OCC=C)C1c1ccc(O)cc1 (centres undefined)
IC50 [17]: > 50 µM (inactive)

COC(=O)Cc1nn(-c2nc3ccccc3s2)c(O)c1/C(C)=N/c1ccc(OC)cc1
IC50 [11]: 0.103 µM (active)
IC50 [12]: > 20 µM (inactive)
IC50 [13]: > 20 µM (inactive)
EC50 [14]: 0.1 µM (active)
EC50 [15]: < 0.31 µM (inactive)
IC50 [29]: > 80 µM (inactive)
IC50 [16]: 1.13 µM (active)

Reference: ChEMBL document CHEMBL1201862, “PubChem BioAssay data set” (2004)
